According to PubChem BioAssay AID720512 (Broad Institute, 2013):
Active and inactive are the calls of the source. How the calls were made is not given here.

Each compound was assayed against Toxin B (TcdB) glycohydrolase, Clostridioides difficile 630 (assay: TcdB glycohydrolase inhibitors, dose response, biochemical, cherry-pick, plate reader (AID 720512)). Settings: recombinant TcdB glycohydrolase activity.

SMILES | AC50
COc1cc(/C=N/NC(=O)c2cccc([N+](=O)[O-])c2)ccc1O | > 39 µM (inactive)
CC(=O)N(C)C[C@@H]1Oc2cc(/C=C/c3ccccc3)ccc2S(=O)(=O)N([C@H](C)CO)C[C@@H]1C | > 39 µM (inactive)
CN1/C(=C/C=C/c2n(C)c3cc([N+](=O)[O-])c([N+](=O)[O-])cc3[n+]2C)C(C)(C)c2ccccc21 | > 39 µM (inactive)
Cc1cccc(NC(=O)c2ccc(N3CCOCC3)c([N+](=O)[O-])c2)n1 | > 39 µM (inactive)
CN1c2ccc(-c3ccccc3)cc2[C@H]2[C@H](CCN2C(=O)CN2CCOCC2)[C@H]1CO | > 39 µM (inactive)
CC(=O)Oc1ccc(/C=N/NC(=O)CCSc2ccccc2)cc1 | > 39 µM (inactive)
CCOc1ccc(/C=N/n2nnnc2N)cc1O | > 39 µM (inactive)
COC1=C/C(=C/c2c(N)n3nc(CC(=O)N4CCOCC4)sc3nc2=O)C=CC1=O | > 39 µM (inactive)
O=C(NC(=S)Nc1ccc(N2CCOCC2)cc1)c1ccccc1 | > 39 µM (inactive)

Same assay, conditions: recombinant TcdB glycohydrolase activity, at 19.5 µM (top of the series)

SMILES | activity change, negative = inhibition
Cn1cc(C(CO)Cc2ccccc2)c2ccccc21 (stereo not given) | inactive
CSc1cccc(NC(=O)CCc2ccccc2)c1 | inactive
Cn1c(=O)[nH]c(=O)c2c1[nH]c(=S)n2Cc1ccccc1 | inactive
O=C(Nc1ccccc1F)N1C[C@@H]2N[C@H](C1)C2c1ccc(-c2cccc(F)c2)cc1 (stereo not given in full) | inactive
COc1ccccc1N1CC(O)=C(c2nc3ccccc3s2)C1=N | inactive
Cc1ccc2c(c1)-c1c(cnn1CC(=O)NC(C)CCc1ccco1)CO2 (stereo not given) | inactive
C=C1CCN(Cc2ccccc2)S(=O)(=O)c2ccccc21 | inactive
COc1ccc(C2=NS(=O)(=O)N(C)C(C(=O)NCc3ccccc3)=C2)cc1OC | inactive
CC(C)Cc1cc(C(=O)N2CCCC(CO)(Cc3ccc(F)cc3)C2)no1 (stereo not given) | inactive
CN(c1ccccc1)S(=O)(=O)c1cccc(C(=O)NCCc2ccc(O)c(O)c2)c1 | inactive
O=C(C1CCOCC1)N1CC[C@@H]2[C@@H](CO)Nc3ccc(-c4ccc(F)cc4)cc3[C@@H]21 | inactive
Cc1ccc(CNC(=O)Nc2cccc(C)c2)cc1 | inactive
COc1ccc(C(=O)Nc2cc(Cl)ccc2C(=O)O)cc1 | inactive
CCNC(=O)[C@H]1[C@H](CO)[C@H]2Cn3c(ccc(-c4ccccc4)c3=O)[C@H]2N1CC | inactive
NNC(=O)CNC(=O)Nc1n[nH]c(=S)s1 | inactive
COC(=O)c1ccc(NC(=S)Nc2ccc(O)cc2)cc1 | inactive
COc1ccccc1-c1cn[nH]c1-c1ccc(O)cc1O | inactive
C/C(=N\NC(=O)c1ccccc1O)c1cccc(NC(=O)c2ccccc2)c1 | inactive
Nc1nc(CCOc2ccc(F)cc2)cs1 | inactive
COc1ccc(NS(=O)(=O)c2cc(N=Nc3c(O)[nH]c(=O)[nH]c3=O)ccc2Cl)cc1 | inactive
C=CCOc1cccc(CNc2ccc3[nH]c(=O)[nH]c3c2)c1 | inactive

SMILES | activity change, negative = inhibition
O=C(NC(=S)NNS(=O)(=O)c1ccccc1)c1cccnc1 | inactive
Cc1ccn2c(Cc3ccccc3)c(-c3ccc(F)cc3)nc2c1 | inactive
COc1ccc(C2=NS(=O)(=O)N(C)C(C(=O)NCc3ccc4c(c3)OCO4)=C2)cc1 | inactive
CCC(=O)Nc1ccc2c(c1)OC[C@@H](C)N(C(=O)NC(C)C)C[C@H](C)[C@H](OC)CN(C)C2=O | inactive
O=C(NNc1ccc(-c2csnn2)cc1)c1ccccc1C(F)(F)F | inactive
Cn1cnnc1SCC(=O)NC1CCCCC1 | inactive
O=C(O)c1ccc2c(c1)N(Cc1cccc(F)c1)C(=O)CS2 | inactive
COc1ccccc1C1NC(=O)NC(C)=C1C(=O)OC1CCCCC1 (stereo not given) | inactive
O=C(O)c1ccccc1C(=O)c1ccc2c(c1)N(Cc1cccc(F)c1)C(=O)CO2 | inactive
C[C@@H]1C=C[C@](Cc2ccccc2)(C(=O)NCC2CC2)N1C(=O)c1ccccc1 | inactive
Cc1nc2ccccc2nc1OCC(=O)Nc1ccc(F)cc1 | inactive
ClCC(CNCc1ccccc1)c1ccccc1 (stereo not given) | inactive
O=C(CSc1ccccc1)Nc1cc(S(=O)(=O)N2CCOCC2)ccc1N1CCOCC1 | inactive
O=C(C[C@H]1C[C@@H]2c3cc(NC(=O)c4ccc5c(c4)OCO5)ccc3O[C@@H]2[C@@H](CO)O1)NCc1cccc(F)c1 | inactive
CCOC(=O)c1nnn(-c2nonc2N)c1-c1ccccc1Cl | inactive
O=C(C[n+]1ccccc1)N/N=C/c1ccc(O)cc1 | inactive
Cc1c(O)ccc(NC(=O)/C=C/c2ccccc2)c1C | inactive
O=C(C[C@@H]1CC[C@@H]2[C@H](COC[C@@H](O)CN2C(=O)Nc2ccc(Cl)c(Cl)c2)O1)NCc1ccncc1 | inactive
CCOC(=O)C1=C(C)Nc2nnnn2C1c1ccc(OC)c(Br)c1 (stereo not given) | inactive
Cc1ccc(C2=NS(=O)(=O)N(C)C(C(=O)NCc3ccc4c(c3)OCO4)=C2)cc1 | inactive
Nn1c(SCc2ccccc2F)nnc1-c1ccccn1 | inactive

SMILES | activity change, negative = inhibition
CN(C)CCNc1ccc(CO)c2sc3ccc(O)cc3c(=O)c12 | inactive
O=C(C[C@@H]1CC[C@H]2[C@@H](COC[C@@H](O)CN2C(=O)c2ccccn2)O1)NC1CCC1 | inactive
Cc1ccc2c(C)c3ccc4ccccc4c3c[n+]2c1 | inactive
C[C@H]1CN([C@@H](C)CO)S(=O)(=O)c2ccc(-c3ccncc3)cc2O[C@H]1CN(C)Cc1ccc(Oc2ccccc2)cc1 | inactive
Cc1cccc(/C=C/c2onc(C)c2S(=O)(=O)N2CCC(C(=O)N3CCCCCC3)CC2)c1 | inactive
CC(=O)Nc1ccccc1O | inactive
COc1ccc([N+](=O)[O-])cc1NC(=S)NC(C)=O | inactive
Oc1ccc(/C=N/n2cc(-c3ccccc3)[nH]c2=S)cc1 | inactive
Cc1ccc(C2=NS(=O)(=O)N(C)C(C(=O)NC(C)c3ccccc3)=C2)cc1 (stereo not given) | inactive
CC1CC(=O)N(c2ccc(NCCc3ccc(O)cc3)c([N+](=O)[O-])c2)C1=O (stereo not given) | inactive
CN1C(=O)c2cc(NC(=O)c3cccc(F)c3)ccc2OC[C@@H]2O[C@@H](CC(=O)NCC3CCCCC3)CC[C@@H]21 | inactive
CSc1nc(Cl)cc(Nc2ccc(O)cc2)n1 | inactive
COc1ccccc1CNC(=O)CN(c1ccc(C)cc1)S(=O)(=O)c1c(C)n[nH]c1C | inactive
COc1cc(/C=C(\C#N)C(=O)N2CCCCC2)ccc1O | inactive
O=C(Nc1ccc(O)cc1)C1CCCN1S(=O)(=O)c1ccc(F)cc1 (stereo not given) | inactive
Cc1ccn(CCC(=O)NC2CC(C)(C)Cc3c2cnn3-c2ccccc2C)n1 (stereo not given) | inactive
Fc1ccc(/C=C\c2nccc3c2[nH]c2ccccc23)cc1 | inactive
COc1cccc(Oc2ccc3nnc(C(F)(F)F)n3n2)c1 | inactive
COc1cc(N=Nc2c(C)n(C)n(-c3ccccc3)c2=O)ccc1N | inactive
Cc1ccc(C2=NS(=O)(=O)N(C)C(C(=O)NCc3ccc(F)cc3)=C2)cc1 | inactive
O=C(NNc1nc2c(F)cccc2s1)C1COc2ccccc2O1 (stereo not given) | inactive

SMILES | activity change, negative = inhibition
Cc1ccc(S(=O)(=O)N2CCCC2C(=O)Nc2ccc(O)cc2)cc1 (stereo not given) | inactive
COc1cccc(CC(=O)OCC(=O)Nc2c(C)nn(-c3ccccc3)c2C)c1 | inactive
Fc1ccc(-c2nc3ccc(Br)cn3c2Cc2ccccc2)cc1 | inactive
O=C(NC(=S)NCc1ccccc1)c1cccnc1 | inactive
O=c1c2oc3nc4c(cc3c2ncn1CCCc1ccccc1)CCCC4 | inactive
CC(=O)c1cccc(OCC(=O)c2cc(C)n(-c3cc(C)on3)c2C)c1 | inactive
COc1ccc(/C=C2\CCC(C3CCCC3)C2=O)cc1 (stereo not given) | inactive
C=CCn1c(C)cc(C(=O)COC(=O)CCc2cc(OC)c(OC)c(OC)c2)c1C | inactive
COc1cc(C(=O)Nc2scc(-c3ccccc3)c2C(=O)O)cc(OC)c1OC | inactive
COc1ccc(CC(=O)NNC(=S)NC(=O)c2cccnc2)cc1 | inactive
COC(=O)[C@@]12CCCCN1[C@H](c1ccc(-c3ccccc3)c(OC)c1)[C@H]1C(=O)N(C)C(=O)[C@H]12 | inactive
NC(=O)Nc1ccc(Nc2ccccc2)cc1 | inactive
COc1ccc(C2=NS(=O)(=O)N(C)C(C(=O)NCc3ccc(F)cc3)=C2)cc1OC | inactive
Cc1ccc(S(=O)(=O)Oc2cccc(/C=N/Nc3ccc(C(=O)O)cc3)c2)cc1 | inactive
CC(=O)c1cccc(-c2ccnc3c2CC(C(=O)NCc2ccccc2)O3)c1 (stereo not given) | inactive
CCCNC(=O)Nc1ccc2c(c1)C(=O)N(C)[C@@H]1CC[C@H](CC(=O)NC3CCC3)O[C@H]1CO2 | inactive
O=C(CSc1nnc(-c2ccncc2)o1)N1CCCCCC1 | inactive
Cc1nc(SCC(=O)N2CCNC2=O)c(C#N)c(C)c1C | inactive
